For two compounds, EC50 and Ki results are on record in BindingDB's records for doi:10.1021/jm801327q (Cnrs, 2009).

Test [1] concerns the target 5-hydroxytryptamine receptor 4 (Homo sapiens, UniProt Q13639). Description: Radioligand Binding Assay (Ki) and cAMP Accumulation Assay (EC50). The conditions noted are these: pH 7.4; 25 °C. The protocol: Nonspecific binding was determined with 10 uM GR113808. After incubation, the reaction was terminated by filtration through Whatman GF/B. Radioactivity was measured using a Beckman model LS6500C liquid scintillation counter. Binding data are expressed as a percentage of displacement for the screening of the library compounds. For selected compounds, Ki were analyzed by computer-assisted nonlinear regression analysis (Prism, Graphpad Software, San Diego, CA). EC50 values correspond to the concentration of agonists required to obtain half maximal stimulation of adenylyl cyclase. […] The data are the results of two or three independent determinations performed in triplicate.

Test [2] deals with Amyloid-beta precursor protein (Homo sapiens) (UniProt P05067). Description: EC/IC50 was the effective concentration of agonist inhibiting the formation of A-beta fibrils to 50% of the control value. Three independent measurements were made for all cases.
Chain of Amyloid-beta precursor protein (Homo sapiens) (P05067 whole entry, looked up): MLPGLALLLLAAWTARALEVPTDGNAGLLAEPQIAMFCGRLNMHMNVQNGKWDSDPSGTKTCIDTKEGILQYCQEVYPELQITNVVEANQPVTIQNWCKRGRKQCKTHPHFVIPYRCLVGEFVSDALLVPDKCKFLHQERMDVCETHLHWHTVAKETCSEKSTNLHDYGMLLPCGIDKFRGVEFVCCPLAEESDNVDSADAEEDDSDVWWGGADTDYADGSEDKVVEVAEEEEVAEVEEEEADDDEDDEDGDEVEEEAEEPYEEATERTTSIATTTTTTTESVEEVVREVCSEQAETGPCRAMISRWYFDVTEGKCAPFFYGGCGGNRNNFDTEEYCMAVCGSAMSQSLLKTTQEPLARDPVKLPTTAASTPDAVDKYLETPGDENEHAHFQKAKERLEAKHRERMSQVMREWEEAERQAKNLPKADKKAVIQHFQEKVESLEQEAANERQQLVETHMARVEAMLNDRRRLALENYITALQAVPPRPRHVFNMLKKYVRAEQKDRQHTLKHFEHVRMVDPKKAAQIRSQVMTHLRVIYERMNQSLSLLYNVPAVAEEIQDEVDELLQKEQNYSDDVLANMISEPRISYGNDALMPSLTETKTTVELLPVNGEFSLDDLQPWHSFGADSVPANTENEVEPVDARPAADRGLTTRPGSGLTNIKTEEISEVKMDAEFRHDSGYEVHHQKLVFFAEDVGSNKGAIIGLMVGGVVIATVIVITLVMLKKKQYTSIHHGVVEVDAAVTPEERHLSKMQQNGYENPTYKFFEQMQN

Chain of 5-hydroxytryptamine receptor 4 (Q13639 whole entry): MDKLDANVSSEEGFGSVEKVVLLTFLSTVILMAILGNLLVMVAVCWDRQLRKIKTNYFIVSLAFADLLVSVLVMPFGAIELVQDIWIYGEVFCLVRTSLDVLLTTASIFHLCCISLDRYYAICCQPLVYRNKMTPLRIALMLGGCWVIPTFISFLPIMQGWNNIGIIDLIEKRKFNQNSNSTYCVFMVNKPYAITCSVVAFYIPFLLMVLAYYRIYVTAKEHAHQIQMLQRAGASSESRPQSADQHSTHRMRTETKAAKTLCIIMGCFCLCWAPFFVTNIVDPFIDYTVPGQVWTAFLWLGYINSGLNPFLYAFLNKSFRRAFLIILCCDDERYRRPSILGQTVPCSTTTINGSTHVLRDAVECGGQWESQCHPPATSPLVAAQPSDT

As for `COc1cc(N)c(Cl)cc1C(=O)OCCN1CCC(NC(=O)CCCCCN2C(=O)c3cccc4c(N)ccc(c34)C2=O)CC1` [ML10302 scaffold, 9{a;y}], in test [1], it took 4 nM to reach a half-maximal effect (EC50) and the Ki was 111 nM.
Compound `COc1cc(N)c(Cl)cc1C(=O)OCCN1CCC(NC(=O)CCCNCCCc2ccc(CCCNCCCC(=O)NC3CCN(CCOC(=O)c4cc(Cl)c(N)cc4OC)CC3)cc2)CC1` [ML10302 scaffold, 14] came in with a concentration for a half-maximal effect (EC50) in test [2] of 9000 nM.

As usually defined, the EC50 is the concentration giving half of the maximal effect. A low value points to an effect from little substance. The term Ki denotes the equilibrium dissociation constant of an inhibitor or competing ligand from its target. Read a high Ki as a looser hold on the target.
